Measurements taken from EP0080779B1, “3-Benzazepines as alpha-2 antagonists” (SMITHKLINE BECKMAN CORPORATION, priority 1981, dated 1983).

Legend:
[1] = system: DOCA-salt hypertensive rat; experiment: antihypertensive activity in DOCA-salt hypertensive rat, oral administration; type: in vivo
Experimental: (§1) Cannulas are run intradermally so as to be externalized in the dorso-sacral area of either side and kept in place by wound clips. The rats are allowed to regain consciousness after being placed in a small animal restrainer. The arterial cannula is connected to a pressure transducer for constant blood pressure and heart rate monitoring. Drugs are administered either orally via gavage or i.v. via the femoral vein cannula at a rate of 0.06 ml./minute.
(§2) The above test is conducted on both normotensive and hypertensive rats. DOCA Salt hypertensive rats are prepared from male uninephrectomized Sprague-Dawley rats. The rats, approximately six weeks of age, are lightly anesthetized with ether and subcutaneously implanted with a 25 mg. deoxycorticosterone acetate pellet in the left dorso-sacral area. Six days later a second pellet is implanted in the right dorso-sacral area. These rats are fed a normal laboratory diet, but are given 1% saline solution to drink in place of water. The rats are kept on the saline drinking water for 22-24 days.
The effect of the oral administration of 6-chloro-2,3,4,5-tetrahydro-3-methyl-1H-3-benzazepine on blood pressure in the DOCA-salt hypertensive rat was also determined.

[2] = system: normotensive and hypertensive rats; experiment: antihypertensive activity in conscious cannulated rats, i.v. administration; type: in vivo
Experimental: as §1, §2
The following table sets forth the effect of 6-chloro-2,3,4,5-tetrahydro-3-methyl-1 H-3-benzazepine on blood pressure after i.v. administration to both normotensive and hypertensive rats.

[3] = system: rabbit intraocular pressure; experiment: normal rabbit intraocular pressure determination, instillation into the eye; type: in vivo; conditions: instilled into the rabbit eye; at one hour; relative to the untreated eye
Experimental: The measurement of intraocular pressure depends on subjecting the eye to a force that indents or flattens it. Either the effect of a particular force or the force for a given effect is measured. The specific procedure employed for the compounds of this invention is a normal rabbit intraocular pressure determination. A solution of 0.5% proparacaine hydrochloride diluted 1:10 with physiological saline is instilled into the eye of a rabbit. The lids are gently massaged over the cornea to insure good distribution of the solution. The eye is exposed by separating the lids and the tip of a probe is slowly placed on the cornea at the point where the curvature of the cornea is the greatest, i.e., on the optic axis. Employing an Alcon Applanation Pneumatonograph, the intraocular pressure is determined in each eye until a stable reading is obtained. West, C., Capelta, J. and Kaufman, H., Am. J. Ophthalmol. 74:505 (1972).
Nine rabbits are used in each study, three animals for each dose in most circumstances. […] Immediately following the initial reading, the formulations to be tested, comprising concentrations of 0.01 to 10% of active ingredient, are instilled and pressure readings are taken at 0.5, 1, 2, 3, 4, and 6 hours post-instillation. The intraocular pressure is determined from the value recorded on the pneumotonograph chart paper. A mean intraocular pressure value is calculated at each time point. […]

[4] = system: conscious normotensive rabbits; experiment: rabbit intraocular pressure determination, compound given systemically (ear vein infusion); type: in vivo; conditions: given systemically to rabbits; result in words
[5] = system: alpha2 adrenoceptor; experiment: prejunctional alpha2 antagonist activity, isolated superfused guinea pig left atrium (shift of the clonidine concentration-response curve); type: cell-based
Experimental: Briefly, the heart is removed from a pentobarbital-anesthetized male guinea pig. The left atrium is removed, dissected free of extraneous tissue and mounted in a 2 ml. superfusion chamber. The tissue is paced at 60 pulse/minute and the sympathetic nerves excited at 6 minute intervals by field stimulation. The response to nerve stimulation is measured as the difference in contractile force between the basal contraction and peak contraction following a nerve stimulation. A concentration-response curve for clonidine (alpha2 agonist) is prepared by administering an increasing concentration of clonidine following each successive stimulation. The tissue is then superfused with the alpha2 antagonist to be tested for thirty minutes and the clonidine concentration- effect curve was repeated in the presence of antagonist. The receptor dissociation constant of the antagonist (KB) is defined as the antagonist concentration required to shift the log concentration-response curve of the agonist to the right by a factor of 2.

Structure (SMILES)	Δ BP ([1]; 2 mg/kg PO) [MM Hg]	Mean Arterial Pressure Post-Drug ([1]; 2 mg/kg PO, Pre-Drug 148 ± 11)	Δ BP ([1]; 5 mg/kg PO) [MM Hg]	Mean Arterial Pressure Post-Drug ([1]; 5 mg/kg PO, Pre-Drug 160 ± 7)	Δ BP ([1]; 10 mg/kg PO) [MM Hg]	Mean Arterial Pressure Post-Drug ([1]; 10 mg/kg PO, Pre-Drug 167 ± 8)	Diastolic Blood Pressure Decrease BP ([2]; DOCA Salt Hypertensive rats, n = 4, 0.5 mg/kg I.V., Pre Drug 135 ± 5 MMHg) [MMHg]	Diastolic Blood Pressure Decrease BP ([2]; DOCA Salt Hypertensive rats, n = 4, 1.0 mg/kg I.V., Pre Drug 135 ± 5 MMHg) [MMHg]	Diastolic Blood Pressure Decrease BP ([2]; Normotensive (control) (Sprague-Dawley) rats, n = 4, 0.5 mg/kg I.V., Pre Drug 95 ± 7 MMHg) [MMHg]	Diastolic Blood Pressure Decrease BP ([2]; Normotensive (control) (Sprague-Dawley) rats, n = 4, 1.0 mg/kg I.V., Pre Drug 95 ± 7 MMHg) [MMHg]	Diastolic Blood Pressure Decrease BP ([2]; Normotensive (control) (Wistar-Kyoto) rats, n = 4, 0.5 mg/kg I.V., Pre Drug 115 ± 3 MMHg) [MMHg]	Diastolic Blood Pressure Decrease BP ([2]; Normotensive (control) (Wistar-Kyoto) rats, n = 4, 1.0 mg/kg I.V., Pre Drug 115 ± 3 MMHg) [MMHg]	Diastolic Blood Pressure Decrease BP ([2]; Spontaneously Hypertensive rats, n = 7, 0.5 mg/kg I.V., Pre Drug 167 ± 3 MMHg) [MMHg]	Diastolic Blood Pressure Decrease BP ([2]; Spontaneously Hypertensive rats, n = 7, 1.0 mg/kg I.V., Pre Drug 167 ± 3 MMHg) [MMHg]	decrease of intraocular pressure [3]	effect on systemic blood pressure [4]	alpha2 antagonist activity relative to the 6-chloro derivative ([5]; comparison of KB values)	Kb ([5]; isolated perfused guinea pig left atrium, antagonist concentration shifting the clonidine curve to the right by a factor of 2) [nM]
CN1CCc2cccc(Cl)c2CC1 [6-chloro-2,3,4,5-tetrahydro-3-methyl-1H-3-benzazepine]	17 ± 3	131 ± 12	34 ± 4	127 ± 5	68 ± 8	99 ± 4	27 ± 3	33 ± 4	6 ± 2	13 ± 1	7 ± 2	10 ± 2	33 ± 7	46 ± 2	3.5 mm of mercury	no significant effect		
CN1CCc2ccc(Cl)cc2CC1 [7-chloro-2,3,4,5-tetrahydro-3-methyl-1H-3-benzazepine]																	about one tenth	150
